According to paper PMC5809530, “Resculpting the binding pocket of APC superfamily LeuT-fold amino acid transporters” (Cellular and Molecular Life Sciences: CMLS, 2017):

How the values were obtained:
Type in all cases: cell-based
SNAT5 (SLC38A5) [1] = target: T1, SNAT5 (SLC38A5) (Homo sapiens, UniProt Q8WUX1, A138T); assay: radiolabelled alanine uptake and competition with serine uptake in Xenopus oocytes; conditions: 50 μM substrate, 0-10 mM competitor; pH 8.5, Na+
T1 construct: full length in pSPORT1, expressed in Xenopus laevis oocytes

SNAT5 (SLC38A5) [2] = target: T2, SNAT5 (SLC38A5) (Homo sapiens, UniProt Q8WUX1, A138I); assay: as above; conditions: 50 μM substrate, 0-10 mM competitor; pH 8.5, Na+
T2 construct: full length in pSPORT1, expressed in Xenopus laevis oocytes

SNAT5 (SLC38A5) [3] = target: T3, SNAT5 (SLC38A5) (Homo sapiens, UniProt Q8WUX1); assay: competition with radiolabelled serine uptake in Xenopus oocytes; conditions: 50 μM serine, 0-10 mM asparagine; pH 8.5, Na+
T3 construct: full length in pSPORT1, expressed in Xenopus laevis oocytes

PAT2 (SLC36A2) [4] = target: PAT2 (SLC36A2) (Rattus norvegicus, UniProt Q8K415); assay: competition with radiolabelled proline uptake in Xenopus oocytes; design: full length in pSPORT1, expressed in Xenopus laevis oocytes; conditions: 10 μM proline, 10 mM glycine; Na+-free, pH 5.5
SNAT5 (SLC38A5) [5] = target: T3, SNAT5 (SLC38A5); assay: radiolabelled serine uptake and self-competition in Xenopus oocytes; conditions: 50 μM serine; pH 8.5, Na+
PAT2 (SLC36A2) [6] = target: T4, PAT2 (SLC36A2) (Rattus norvegicus, UniProt Q8K415, F159I); assay: competition with radiolabelled proline uptake and direct uptake in Xenopus oocytes; conditions: 10 μM proline, 0-20 mM α-ABA; Na+-free, pH 5.5
T4 construct: full length in pSPORT1, expressed in Xenopus laevis oocytes
T4 sequence (Q8K415 whole entry F159I): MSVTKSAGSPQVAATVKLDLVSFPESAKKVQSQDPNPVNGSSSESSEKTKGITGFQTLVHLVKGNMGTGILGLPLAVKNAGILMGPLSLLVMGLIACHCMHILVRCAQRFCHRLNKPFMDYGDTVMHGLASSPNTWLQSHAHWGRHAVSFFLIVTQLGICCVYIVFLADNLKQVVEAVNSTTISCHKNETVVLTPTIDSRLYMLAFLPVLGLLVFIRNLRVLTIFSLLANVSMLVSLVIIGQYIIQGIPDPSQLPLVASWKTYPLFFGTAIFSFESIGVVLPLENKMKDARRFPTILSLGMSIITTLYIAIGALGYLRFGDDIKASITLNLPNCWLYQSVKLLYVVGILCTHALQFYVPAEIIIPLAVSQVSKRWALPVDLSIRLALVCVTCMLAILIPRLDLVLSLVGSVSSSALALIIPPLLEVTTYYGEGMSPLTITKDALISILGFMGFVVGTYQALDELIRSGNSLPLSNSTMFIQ

T3 sequence (Q8WUX1 whole entry): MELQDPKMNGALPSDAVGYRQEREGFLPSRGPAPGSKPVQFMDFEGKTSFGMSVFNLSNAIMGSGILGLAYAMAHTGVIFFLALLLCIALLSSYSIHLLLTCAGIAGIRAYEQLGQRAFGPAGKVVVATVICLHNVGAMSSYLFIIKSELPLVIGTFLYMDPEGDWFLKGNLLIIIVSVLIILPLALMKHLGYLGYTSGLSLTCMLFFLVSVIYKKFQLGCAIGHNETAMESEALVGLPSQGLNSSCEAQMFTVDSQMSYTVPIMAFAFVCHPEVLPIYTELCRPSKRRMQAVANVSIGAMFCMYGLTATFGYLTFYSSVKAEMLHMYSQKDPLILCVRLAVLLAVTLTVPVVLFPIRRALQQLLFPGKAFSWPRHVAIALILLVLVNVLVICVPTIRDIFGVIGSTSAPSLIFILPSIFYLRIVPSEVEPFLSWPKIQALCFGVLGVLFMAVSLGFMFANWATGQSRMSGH
T2 sequence (Q8WUX1 whole entry A138I): as the sequence (Q8WUX1 whole entry) above, with A138I counted along it
Chain of PAT2 (SLC36A2) (Rattus norvegicus, UniProt Q8K415) (Q8K415 whole entry): as the sequence (Q8K415 whole entry F159I) above, with I159F counted along it
T1 sequence (Q8WUX1 whole entry A138T): as the sequence (Q8WUX1 whole entry) above, with A138T counted along it

C[C@H](N)C(=O)O [alanine]
radiolabelled alanine uptake and competition with serine uptake in Xenopus oocyt (SNAT5 (SLC38A5) [1]): A138T and A138I mutants gain function and become excellent alanine transporters | radiolabelled alanine uptake and competition with serine uptake in Xenopus oocyt (SNAT5 (SLC38A5) [2]): A138T and A138I mutants gain function and become excellent alanine transporters

NC(=O)C[C@H](N)C(=O)O [asparagine]
competition with radiolabelled serine uptake in Xenopus oocytes (SNAT5 (SLC38A5) [3]): measured in the presence of e unlabelled serine, f asparagine, or g alanine

NCC(=O)O [glycine]
competition with radiolabelled proline uptake in Xenopus oocytes (PAT2 (SLC36A2) [4]): Glycine and alanine interact with all five carriers

N[C@@H](CO)C(=O)O [serine]
radiolabelled serine uptake and self-competition in Xenopus oocytes (SNAT5 (SLC38A5) [5]): Serine is transported well by SNAT5, whereas alanine is transported poorly

CC[C@H](N)C(=O)O [α-ABA]
competition with radiolabelled proline uptake and direct uptake in Xenopus oocyt (PAT2 (SLC36A2) [6]): PAT2-F159I not only binds Ser and α-ABA but efficiently translocates these amino acids
